Drawing on publication PMC5571344, “Identification and Mode of Action of a Plant Natural Product Targeting Human Fungal Pathogens” (Antimicrobial Agents and Chemotherapy, 2017), this text covers MIC for two compounds.

Values after ≈ are worked out from the molar mass of the structure shown. Like-named read-outs stand apart in the source and are kept apart here.

Experiment in all cases: microbe, parasite or virus in culture
The subject of assay [1] is C. albicans. Further details: species or system Candida strains; broth microdilution antifungal susceptibility according to EUCAST protocols, growth inhibition MIC. The following applies: Candida albicans, EUCAST, read-out: MIC Fluconazole. On the procedure:
(§1) The results of [compound left out] susceptibility assays with several clinically relevant Candida species are shown on Fig. 2B. All strains, except C. glabrata, were highly susceptible to [compound left out]. […] [compound left out] […] The yeast and bacterial strains used in the study are listed in Table S1 in the supplemental material. NPs were dissolved in DMSO to 10 μg/ml. [compound left out] [compound left out] was purchased from Phytolab (GmbH), dissolved in DMSO at a 2 mM concentration, heated for 20 min at 50°C for solubilization, and stored at −20°C until usage.

Assay [2] has as its system C. tropicalis. Further details: species or system Candida strains; broth microdilution antifungal susceptibility according to EUCAST protocols, growth inhibition MIC. The following applies: Candida tropicalis, EUCAST, read-out: MIC Fluconazole. As to the method:
as §1

In assay [3] the test system is Pichia kudriavzevii C. krusei. Further details: species or system Candida strains; broth microdilution antifungal susceptibility according to EUCAST protocols, growth inhibition MIC. The following applies: DSY2293, EUCAST, read-out: MIC Fluconazole. On the procedure:
as §1

Assay [4] deals with C. albicans. Also noted: species or system Candida strains; broth microdilution antifungal susceptibility in YNB buffered at pH 7.0, growth inhibition MIC. The note with it: Candida albicans, YNB pH 7.0. On the procedure: as §1
The subject of assay [5] is C. tropicalis. Also noted: species or system Candida strains; broth microdilution antifungal susceptibility in YNB buffered at pH 7.0, growth inhibition MIC. The note with it: Candida tropicalis, YNB pH 7.0. As to the method:
as §1

The test system of assay [6] is Pichia kudriavzevii C. krusei. Also noted: species or system Candida strains; broth microdilution antifungal susceptibility in YNB buffered at pH 7.0, growth inhibition MIC. On the procedure: as §1

As to `OC(Cn1cncn1)(Cn1cncn1)c1ccc(F)cc1F` [Fluconazole], the MIC in assay [1] (DSY227) came to 0.5 µg/mL (≈ 1.63 µM); in assay [1] (DSY288), 1 µg/mL (≈ 3.27 µM); in assay [1] (DSY297) it was 2 µg/mL (≈ 6.53 µM); in assay [1] (DSY299) it was 0.25 µg/mL (≈ 0.816 µM); in assay [2] (DSY381) it was 0.5 µg/mL (≈ 1.63 µM); in assay [2] (DSY2274), 2 µg/mL (≈ 6.53 µM). Also, the MIC in assay [2] (DSY2336) was 16 µg/mL (≈ 52.2 µM); in assay [2] (DSY2374) it was 8 µg/mL (≈ 26.1 µM); in assay [2] (DSY2825), 128 µg/mL (≈ 418 µM); in assay [2] (DSY2897) it was 4 µg/mL (≈ 13.1 µM); in assay [3] it was 32 µg/mL (≈ 104 µM).

`C[C@H]1CC[C@]2(NC1)O[C@H]1C[C@H]3[C@@H]4CC[C@H]5C[C@@H](O)CC[C@]5(C)[C@H]4CC[C@]3(C)[C@H]1[C@@H]2C` [compound 22, Tomatidine]: the MIC in assay [4] (DSY227) was determined as 0.625 µM (≈ 0.26 µg/mL); in assay [4] (DSY281), 0.312 µM (≈ 0.13 µg/mL); in assay [4] (DSY290), 2.5 µM (≈ 1.04 µg/mL); in assay [5] (DSY381), 0.312 µM (≈ 0.13 µg/mL); in assay [5] (DSY826), 0.15 µM (≈ 0.0623 µg/mL); in assay [5] (DSY2274) it was 2.5 µM (≈ 1.04 µg/mL). Further, the MIC was 1.25 µM (≈ 0.52 µg/mL) in assay [5] (DSY2310); 5 µM (≈ 2.08 µg/mL) in assay [5] (DSY2825); 0.625 µM (≈ 0.26 µg/mL) in assay [6] (DSY2293, YNB pH 7.0); above 40 µM in assay [6] (DSY2294, YNB pH 7.0); 1.25 µM (≈ 0.52 µg/mL) in assay [6] (DSY2302, YNB pH 7.0).
